Reference: patent US8022076B2, “Substituted thieno[2,3-d]pyrimidines as potassium channel inhibitors” (Xention Limited, priority 2003, dated 2011)
One block for each compound: values may come before it.

What was measured:
human Kv1.5 = biological target: T1, human Kv1.5 (Homo sapiens, UniProt P22460); assay: Kv1.5 Rb+ efflux assay; type: cell-based; settings: inhibition of 86Rb+ efflux through Kv1.5, cells stably transfected with human Kv1.5, 10 point concentration response curves n=2
T1 construct: expressed in transfected cells; stably transfected, blasticidin selection
Method: The pore of a potassium channel is permeable to other monovalent cations such as Rb^+ and Tl^+. Analysis of cellular efflux of potassium channel permeable ions enables potassium channel activity to be monitored directly. Cells stably transfected with cDNA for human Kv1.5 (in pEF6::VA-His-TOPO) were grown in Dulbecco's Modified Eagle media (DMEM) alpha supplemented with 10% Fetal Calf Serum (FCS), 20 μl/ml penicillin (5000 U/ml) streptomycin (5000 μg/ml), 10 μl/ml [100×] glutamine, and blasticidin (7.5 μg/ml). Cells were dispensed into 96 well cellstar TC plates and allowed to grow until a confluent monolayer was visible. On the morning of the assay run, cold media was aspirated using the TECAN plate washer, and a 50 μl media spike containing 2 μCi/ml (37 kBq/ml) ^86Rb^+ added to each well containing cells using the Shallow-Well Matrix Platemate. Plates were placed in a incubator at 37° C. for a minimum of 3 hours. Unloaded ^86Rb^+ in the “hot” media was aspirated and each well washed 4×250 μl with Earls Balanced Salt Solution (EBSS) which contained 5 mM KCl, 140 mM NaCl, 2 mM CaCl2, 1 mM MgSO4, 10 mM HEPES, and 5 mM glucose, pH 7.4, 290-300 mOsm. These cells were then pre-incubated with 50 μl of EBSS+/−test compounds for 10 minutes at room temperature. After the 10 minute incubation, 50 μl of modified EBSS which contained 145 mM KCl, 2 mM CaCl2, 1 mM MgSO4, 10 mM HEPES, 5 mM glucose, pH 7.4, 290-300 mOsm, was added, and the cells were incubated for a further 10 minutes at room temperature. The high KCl EBSS was used to depolarise cells to a membrane potential that would activate Kv1.5 channels. After the final incubation 80 μl/100 μl of the reaction from each well was transferred to equivalent wells in a Packard “Optiplate” white 96 well plate and counted in a Packard TopCount liquid scintillation counter by Cerenkov emission. Percentage inhibition ^86Rb^+ efflux through Kv1.5 was calculated by normalisation to 2.5 mM 4 amino-pyridine control block of Kv1.5. Alternatively cells were loaded with ^85Rb^+ and quantified by atomic absorption spectroscopy. IC50 determinations were derived from 10 point concentration response curves n=2 using the method described above. Data was fitted as variable slope sigmoidal fit using Graphpad Prism (V3.02) software.

hKv1.5 = hKv1.5 (Homo sapiens, UniProt P22460); assay: Kv1.5 Autopatch electrophysiology (whole cell patch-clamp); type: cell-based; settings: hKv1.5 current, compound at 1 μM
Method: The external bathing solution contained (in mM): 150 NaCl, 10 KCl, […], 3 MgCl2, 1 CaCl2, 10 HEPES, pH 7.4. Patch pipettes were filled with an electrode solution of composition (in mM): 160 KCl, 0.5 MgCl2, 10 HEPES, 1 EGTA, pH 7.4 with KOH.
Compounds were dissolved in DMSO (100%) and made up in the external bather at a concentration of 1 μM. All experiments were conducted at room temperature (22-24° C.).
A cell suspension (10 ml), with a density of 100,000 cells/ml, was aliquoted into a 15 ml centrifuge tube and transferred to an incubator (37° C., 5% CO2) for approximately one hour before use. Following 60 min incubation, a tube was taken and centrifuged at 1000 rpm for 4 mins at room temperature. 9.5 ml supernatant was thence discarded, leaving a cell pellet at the bottom of the tube. The pellet was then resuspended using 100 μl of cold (4° C.), filtered (0.22 μm), 0.2% BSA/bather solution (0.02 g BSA/10 ml bather). The bottom of the tube was manually agitated gently until the solution became cloudy with cells. The 100 μl cell resuspension solution was then stored on the bench at 4° C. (using a Peltier-based temperature control device) until used.
A length of capillary glass (1B150E-4, WPI) was dipped into the cell suspension solution, such that ˜3 cm column of fluid was taken up by capillary action. A Ag/AgCl wire was dropped into the non-dipped end of the capillary also. The outside of the solution-filled end of the capillary was then dried and the capillary was loaded into the AutoPatch™
Borosilicate glass patch pipettes (from 1.5 mm OD, thin-walled filamented, GC150-TF capillary glass, Harvard) were pulled using a DMZ pipette puller (Zeitz Instruments), and were back-filled using the internal pipette solution, being careful that no bubbles remain at the tip or in the body of the pipette. […]
Electrophysiology voltage-step protocols and analysis of data was performed as follows. […] Currents were analysed using Pulsefit software (v8.54, HEKA, Germany), with the total charge measured during the whole of the voltage step. […]

T1 sequence (P22460 whole entry): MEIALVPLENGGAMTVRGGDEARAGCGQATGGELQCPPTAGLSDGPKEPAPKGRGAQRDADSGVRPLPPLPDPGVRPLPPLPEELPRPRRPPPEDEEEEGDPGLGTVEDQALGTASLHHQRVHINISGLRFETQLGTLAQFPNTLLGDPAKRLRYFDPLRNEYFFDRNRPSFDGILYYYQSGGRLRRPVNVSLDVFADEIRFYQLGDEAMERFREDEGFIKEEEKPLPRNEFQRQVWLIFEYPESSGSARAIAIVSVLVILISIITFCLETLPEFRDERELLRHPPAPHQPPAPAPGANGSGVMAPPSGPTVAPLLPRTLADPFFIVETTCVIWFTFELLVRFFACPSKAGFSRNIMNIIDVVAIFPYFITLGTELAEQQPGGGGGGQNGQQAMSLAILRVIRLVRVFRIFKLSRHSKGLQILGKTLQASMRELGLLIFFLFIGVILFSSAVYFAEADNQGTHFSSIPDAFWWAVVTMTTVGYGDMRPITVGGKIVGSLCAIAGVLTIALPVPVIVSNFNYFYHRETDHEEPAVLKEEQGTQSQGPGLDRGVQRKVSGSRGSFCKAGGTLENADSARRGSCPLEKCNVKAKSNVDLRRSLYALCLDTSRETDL
Sequence of hKv1.5 (P22460 whole entry): as above

Compound: c1ccc(-c2csc3ncnc(NCC4CCCCC4)c23)cc1 [Example 89, Cyclohexylmethyl-(5-phenyl-thieno[2,3-d]pyrimidin-4-yl)-amine]
inhibition at 1 µM (hKv1.5): 73.4%

Compound: c1ccc(-c2csc3ncnc(NCc4ccco4)c23)cc1 [Example 83, Furan-2-ylmethyl-(5-phenyl-thieno[2,3-d]pyrimidin-4-yl)-amine]
melting point: 77 to 79 °C

Compound: c1ccc(-c2csc3nc(NCC4CC4)nc(NCc4ccccn4)c23)cc1 [Example 188, N^2-Cyclopropylmethyl-5-phenyl-N^4-pyridin-2-ylmethyl-thieno[2,3-d]pyrimidine-2,4-diamine]
melting point: 109 to 111 °C

Compound: CC(Nc1ncnc2scc(-c3ccccc3)c12)c1ccccn1 (centres unmarked) [Example 149, (5-Phenyl-thieno[2,3-d]pyrimidin-4-yl)-(1-pyridin-2-yl-ethyl)-amine]
IC50 (human Kv1.5): 370 nM

Compound: COCc1nc(NCc2ccccn2)c2c(-c3ccccc3)csc2n1 [Example 305, (2-Methoxymethyl-5-phenylthien[2,3-d]primidin-4-yl)pyridin-2-ylmethylamine]
% Inhibition at 1 μM (hKv1.5): 94.0%

Compound: COCCNc1nc(NCc2ccccn2)c2c(-c3ccccc3)csc2n1 [Example 189, N^2-(2-Methoxyethyl)-5-phenyl-N^4-(pyridin-2-ylmethyl)thieno[2,3-d]pyrimidine-2,4-diamine]
IC50 (human Kv1.5): 280 nM

Compound: OCCc1nc(NCc2ccccn2)c2c(-c3ccccc3)csc2n1 [Example 250, 2-{5-Phenyl-4-[(pyridin-2-ylmethyl)amino]thieno[2,3-d]pyrimidin-2-yl}ethanol]
melting point: 90 to 92 °C

Compound: 3-{5-Phenyl-4-[(pyridin-2-ylmethyl)-amino]-thieno[2,3-d]pyrimidin-2-ylamino)}-propane-1,2-diol [Example 214]
% Inhibition at 1 μM (hKv1.5): 87.0%

The remaining lines, values ahead:

IC50 (human Kv1.5): 2180 nM
Compound: Nc1nc(NCc2ccccn2)c2c(-c3ccccc3)csc2n1 [Example 192, 5-Phenyl-N-4-pyridin-2-ylmethyl-thieno[2,3-d]pyrimidine-2,4-diamine]

melting point: 184 to 185 °C
Compound: Cn1ccc2cc(-c3csc4ncnc(NCc5ccccn5)c34)ccc21 [Example 312, [5-(1-Methyl-1H-indol-5-yl)thieno[2,3-d]pyrimidin-4-yl]pyridin-2-ylmethylamine]

melting point: 97 to 99 °C
Compound: ClCc1nc(NCc2ccccn2)c2c(-c3ccccc3)csc2n1 [Example 301, (2-Chloromethyl-5-phenylthieno[2,3-d]pyrimidin-4-yl)pyridin-2-ylmethylamine]

IC50 (human Kv1.5): 570 nM
Compound: CN(C)c1nc(NCc2ccccn2)c2c(-c3ccccc3)csc2n1 [Example 198, N^2,N^2-Dimethyl-5-phenyl-N^4-pyridin-2-ylmethyl-thieno[2,3-d]pyrimidine-2,4-diamine]

melting point: 110 to 112 °C
Compound: Cc1nc(NCc2ccccn2)c2c(-c3ccccc3)csc2n1 [Example 101, 2-Methyl-N-(2-pyridyl)methyl-5-phenylthieno[2,3-d]pyrimidin-4-ylamine]

IC50 (human Kv1.5): 220 nM
Compound: COc1ccc(-c2csc3ncnc(NCc4ccccn4)c23)cc1 [Example 138, [5-(4-Methoxy-phenyl)-thieno[2,3-d]pyrimidin-4-yl]-pyridin-2-ylmethyl-amine]
